From patent US11980185B2, “Bioflavonoid compositions and their use for water purification and food preservation” (Citrox Biosciences Limited, priority 2018, dated 2024)
Blank lines part the entries; values can stand above or below the compound they belong to.

Tests used:
Escherichia coli [1] = assay: Direct exposure growth inhibition of mini cultures by turbidity (MIC); type: cell-based; settings: 5 hours at 37° C.
Streptococcus mutans = assay: Inhibition zone assay on BHI agar plate; type: cell-based; settings: 48 h at 37° C. anaerobe
Description: The antibacterial activity of ε-polylysine was semi-quantitatively assessed in a inhibition zone assay. 0.1 mL of a confluent Streptococcus mutans culture was spread over a Brain Heart Infusion (BHI) agar plate. Filter platelets (5 mm diameter) soaked with 0.01 mL substance were applied on plate. Plates were incubated 48 h at 37° C. under anaerobe conditions. The diameter of outer limit of the inhibition zones were measured, the diameter of the platelet deduced and the half result considered the radius of inhibition rings. Concentrations were tested in triplicate and their results averaged.

S. mutans = assay: Short exposure assay (bactericidal effect); type: cell-based, Streptococcus mutans; settings: 0.05%, 10 minutes exposure, 5000 Colony Forming Units
Description: The short-term antibacterial activity of Citrox was semi-quantitatively assessed in a short exposure assay. A S. mutans culture, diluted in order to contain 5000 Colony Forming Units, was incubated for 10 minutes in presence of the antibacterial substance and extemporarily plated onto a BHI agar plate. Plates were incubated at 37° C. under anaerobe conditions and colony counted. […] Citrox 0.5% reduced the count of CFU to the half (<3000 CFU).

[2] = tested on: chloroquine-sensitive Plasmodium chabaudi; assay: Malaria infection in mice; type: in vivo; settings: 20 to 40 days post-treatment
Glucose oxidase = Glucose oxidase (Aspergillus niger, UniProt P13006); assay: Immobilisation of glucose oxidase onto silicate, residual activity in solution; settings: 0.25 mg/mL, 2 mg/mL silicate, artificial saliva buffer, FIG. 3
Description: 0.5 mg/mL glucose oxidase enzyme was incubated for 15 minutes at room temperature in an artificial saliva buffer composition including:
with 2 mg/mL silicate and 0.25 mg/mL of an amino acid based compound, bovine serum albumin (BSA), lysine or ε-polylysine. The mixture was centrifuged in order to pellet the silicate and the supernatant tested for its glucose oxidase activity in presence of glucose, lactoperoxidase and a chromogen substrate (ABTS). The resulting activities were compared with the enzyme incubated with silicate in absence of an amino acid compound (FIG. 3).

Escherichia coli [3] = assay: Pretreatment of high binding plates, growth inhibition by turbidity; type: cell-based
Description: High Binding plates were pre-treated with 0.1 mL of pure Citrox/ε-Polylysine solutions incubated 60′ at room temperature. The concentrations of Citrox range from 0.06% to 4%. The ε-Polylysine concentrations range from 30 mg/L to 120 mg/L. The wells have been emptied and rinsed with 0.2 mL bi-distilled water. 0.2 mL of a diluted Escherichia coli culture (turbidity: 5 mOD at 600 nm) were given to the pre-treated wells and incubated for 3 hours at 37° C. Turbidity were measured at 600 nm and percentage of growth inhibition in comparison to untreated well calculated (FIG. 1).

Chain of Glucose oxidase (P13006 17-605): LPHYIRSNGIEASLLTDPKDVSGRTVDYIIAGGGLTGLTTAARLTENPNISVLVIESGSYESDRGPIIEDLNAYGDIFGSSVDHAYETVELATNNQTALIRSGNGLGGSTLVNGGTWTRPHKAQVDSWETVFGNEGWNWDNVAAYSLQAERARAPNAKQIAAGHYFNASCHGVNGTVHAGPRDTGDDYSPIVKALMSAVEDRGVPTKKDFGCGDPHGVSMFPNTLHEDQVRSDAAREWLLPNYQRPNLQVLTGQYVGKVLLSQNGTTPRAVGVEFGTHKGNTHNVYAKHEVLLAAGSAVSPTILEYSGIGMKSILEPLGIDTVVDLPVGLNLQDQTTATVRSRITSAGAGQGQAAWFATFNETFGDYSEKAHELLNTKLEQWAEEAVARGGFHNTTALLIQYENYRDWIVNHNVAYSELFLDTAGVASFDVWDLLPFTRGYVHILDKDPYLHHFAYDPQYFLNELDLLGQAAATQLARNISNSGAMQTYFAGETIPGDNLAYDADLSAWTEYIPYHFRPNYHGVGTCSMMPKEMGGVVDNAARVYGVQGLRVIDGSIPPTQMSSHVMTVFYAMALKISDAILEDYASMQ

- Minimal inhibitory concentration (MIC) (Escherichia coli [1]; less than 2% (6% in case of ethanol) of growth, extrapolated from FIG. 2, 1% corresponds to 10 g/L): 12.5%
Compound: CCO [Ethanol, reference compound]
- Radius of inhibition rings (Streptococcus mutans; concentration not given): 5 mm

Compound: OO [Water peroxide, reference compound]
- colony formation (S. mutans): complete absence of colony formation
- Radius of inhibition rings (Streptococcus mutans; 0.1%): 1.5 mm
- Radius of inhibition rings (Streptococcus mutans; 1%): 5 mm

Compound: CCN(CC)CCCC(C)Nc1ccnc2cc(Cl)ccc12 (stereo not shown) [chloroquine]
- infection level [2]: approx. zero infection

Compound: ε-Polylysine
- immobilization of Glucose oxidase onto silicate (Glucose oxidase): promotes immobilization of Glucose oxidase onto silicate
- Minimal inhibitory concentration (MIC) (Escherichia coli [1]; less than 2% of growth vs untreated control, extrapolated from FIG. 2): 4 mg/L
- Radius of inhibition rings (Streptococcus mutans; 10 mg/L): 0.5 mm
- Radius of inhibition rings (Streptococcus mutans; 100 mg/L): 2.5 mm
- Radius of inhibition rings (Streptococcus mutans; 1000 mg/L): 6.5 mm
- highest ε-polylysine concentration that does not affect significantly the antibacterial effect of Citrox pretreatment (Escherichia coli [3]; plate pretreatment together with Citrox): 30 mg/L
- inhibitory effect of pretreatment of a high binding plate (Escherichia coli [3]; ε-polylysine alone, titers largely above the MIC of direct exposure): does not yield any inhibitory effect
